Measurements taken from patent publication US10669287B2, “Curcumin-boron complex and pharmaceutical containing same” (JAPAN SCIENCE AND TECHNOLOGY AGENCY, priority 2016, dated 2020).
Like-named read-outs stand apart in the source and are kept apart here.

Experiments:
[1] = Maximum wavelength λmax of photocatalysts; format: physicochemical
[2] = biological target: T1, Aβ1-42 (Homo sapiens, UniProt P05067); assay: Degree of oxygenation of pre-aggregated Aβ1-42 (MALDI-TOF MS), Test Example 10; format: biochemical; conditions: pre-aggregated Aβ1-42 20 μM, catalyst 2 μM, 37° C., 30 minutes; for Degree of oxygenation (%) of Aβ42 (λ = 660 nm): phosphate buffer pH 7.4, 660 nm; for Degree of oxygenation (%) of Aβ42 (λ = 780 nm): phosphate buffer pH 7.4, 780 nm (14 mW)
T1 construct: phosphate buffer (pH 7.4)/cell culture solution (containing 0.1% horse serum) (1:3) containing Aβ1-42 (10 μM)
Protocol: Aβ1-42 isopeptide (concentration: 250 μM in 0.1% aqueous solution of trifluoroacetic acid), angiotensin IV (200 μM aqueous solution), Met-enkephalin (200 μM aqueous solution), and somatostatin (200 μM aqueous solution) were added to a phosphate buffer or phosphate buffer saline (pH 7.4) (with 0.1 M aqueous solution of sodium hydroxide, as necessary) so that a final peptide concentration of 20 μM or 40 μM (pH 7.4) was reached. Before being subjected to oxygenation reaction, the Aβ1-42 solution was incubated at 37° C. for 1 to 3 hours. The phosphate buffer containing 40 μM of Aβ was diluted with a Dulbecco's modified Eagle's medium (DMEM, Life Technologies) containing 0.1% horse serum and buffered with 25 mM of 4-(2-hydroxyethyl)-1-piperazineethanesulfonic acid (HEPES).
Solutions of the compounds with a final concentration of 2 μM were used for evaluation of oxygenation of Aβ1-42. Solutions of the compounds with a final concentration of 5 μM were used for evaluation of peptide selectivity. Each mixture was subjected to light irradiation with an LED (wavelength: 500, 660, or 780 nm) at a distance of approximately 5 to 10 cm at room temperature. A control group without light irradiation was additionally prepared. Reaction was analyzed through monitor analysis with a MALDI-TOF MS. Degree of oxygenation was determined as a ratio: degree of oxygenation (%)=(total of MS intensities for n[O] adducts)/(MS intensity for native+total of MS intensities for n[O] adducts)×100. Aliquots of each reaction solution were desalted with a ZipTip U-C18 (Merck Millipore), as necessary, before mass spectrometry.
a: A phosphate buffer (pH 7.4) solution containing pre-aggregated Aβ1-42 (20 μM, incubated at 37° C. for 3 hours) and a catalyst (2 μM) was subjected to light irradiation (wavelength: 660 nm) at 37° C. for 30 minutes. Thereafter, the reaction mixture was analyzed by using a MALDI-TOF MS.
a: A phosphate buffer (pH 7.4) containing pre-aggregated Aβ1-42 (20 μM, obtained through incubation at 37° C. for 3 hours) and a catalyst (2 μM) were subjected to light irradiation at 780 nm (14 mW) at 37° C. for 30 minutes. The reaction mixture was analyzed by using a MALDI-TOF MS.

[3] = biological target: T1, Aβ1-42; assay: Oxygenation under mouse skin, Test Example 7; format: in vivo; conditions: microtube with Aβ1-42 20 μM aggregated 3 hours, implanted in back skin, LED 780 nm, 30 minutes
Protocol: A microtube containing a phosphate buffer containing Aβ1-42 (20 μM, aggregated in advance for 3 hours) and the compound E or a compound 3 [9-(6-bromo-3-methyl-1,3-benzotriazol-3-ium-2-yl)-julolidine] was implanted in the back skin of a wild mouse, and light irradiation with an LED lamp was performed from the outside of the mouse body at a wavelength of 780 nm for 30 minutes (FIG. 10). As a control experiment, another microtube containing the same components (Aβ1-42 (20 μM, aggregated in advance for 3 hours) and the compound E or the compound 3) was directly subjected to light irradiation outside of the mouse body. The reaction mixture was analyzed by using a MALDI-TOF MS, and then subjected to ZipTip treatment for analysis. The percentage of oxygenation ratio was calculated from the percentage of oxygenation ratio under the skin and the oxygenation ratio outside of the skin “[oxygenation ratio under mouse skin/oxygenation ratio outside of mouse skin]×100”.

[4] = tested on: PC 12 cells; format: cell-based
Protocol: Rat pheochromocytoma PC 12 cells were suspended with DMEM containing 5% horse serum and 10% fetal bovine serum, seeded in a poly-D-lysine-coated 96-well plate at a concentration of 10,000 cells per well, and incubated in a 5% carbon dioxide atmosphere at 37° C. for 3 days. After the solvent was removed, the cells were washed with 150 μL of serum-free DMEM, and DMEM (75 μL) containing 0.1% horse serum was added thereto. Thereafter, the 96-well plate was incubated in a 5% carbon dioxide atmosphere at 37° C. for 1 day for use in oxygenation reaction. In oxygenation reaction, the compound E (100 μM dimethyl sulfoxide solution) was added to a phosphate buffer saline containing Aβ (aggregated in advance for 3 hours, 40 μM) and 25 μL of the above cell solution (final concentration of Aβ: 10 μM, final concentration of compound E: 1 μM). The mixture was irradiated with an LED (wavelength: 780 nm) at a distance of approximately 5 cm at 37° C. for 5 minutes. The cells were incubated in a 5% carbon dioxide atmosphere at 37° C. for 48 hours. The cell viability was measured by using the Cell Count Reagent SF (NACALAI TESQUE, INC., Kyoto, Japan) with WST-8 (2-(2-methoxy-4-nitrophenyl)-3-(4-nitrophenyl)-5-(2,4-disulfophenyl)-2H-tetrazolium).
b: LC50 (dark) indicates the toxicity of a compound itself, and LC50 (light) indicates the phototoxicity of a compound. The PC 12 cells were placed in dark or subjected to photocatalytic treatment under light irradiation (wavelength: 660 nm), and incubated at 37° C. for 5 minutes, and then in a 5% carbon dioxide atmosphere at 37° C. for 48 hours, for which the cell viability was analyzed (n=5, mean±SEM).
b: The PC 12 cells were treated together with a photocatalyst (1 μM) at 37° C. for 5 minutes in dark or under light irradiation (wavelength: 780 nm), and thereafter the cell viability was analyzed (n=3, mean±SEM).

[5] = Stability of catalyst in neutral phosphate buffer without or under light irradiation (HPLC), Test Example 5; format: physicochemical; conditions: under light irradiation (660 nm)
Protocol: A neutral phosphate buffer containing a catalyst was incubated without light irradiation or under light irradiation (660 nm), and thereafter ethanol containing benzyl alcohol (as an internal standard) was added thereto, and analysis was performed by using HPLC.

[6] = biological target: T1, Aβ1-42; assay: In vitro oxygenation experiment using Aβ1-42 as a substrate (MALDI-TOF MS), Test Example 1; format: biochemical; conditions: test compound 1 μM, Aβ1-42 10 μM, 37° C.
Protocol: An in vitro oxygenation experiment using Aβ1-42 as a substrate was conducted to confirm that each of the inventive compounds actually have Aβ oxygenation activity. A test compound (1 μM in each case) was added to phosphate buffer (pH 7.4)/cell culture solution (containing 0.1% horse serum) (1:3) containing Aβ1-42 (10 μM), and incubated under LED irradiation (wavelength: 660 nm, 730 nm) at 37° C., and then the reaction was tracked by using a mass spectrometer (MALDI-TOF MS). The native Aβ1-42 and the Na^+ adduct were mainly observed before light irradiation. After light irradiation, an ion peak indicating the presence of the oxygenated form was observed over time (FIG. 1, FIG. 2).

[7] = tested on: PC 12 cells; assay: Cytotoxicity under light irradiation, WST-8 cell viability, Test Example 2; format: cell-based, rat; conditions: LED 660 nm, 10 mW, 5 minutes, then 48 hours
Protocol: A culture medium for rat adrenal medulla-derived pheochromocytoma PC 12 cells (purchased from RIKEN, Japan) seeded on a poly-D-lysine-coated 96-well plate was replaced with 75 μL of a Dulbecco's modified Eagle's medium containing 0.1% horse serum, and the culture was incubated in a 5% CO2 atmosphere at 37° C. for 1 day, and 25 μL of a phosphate buffer saline (pH 7.4) containing a inventive compound was then added thereto. Thereafter, the mixed solution was incubated under LED irradiation (wavelength: 660 nm, 10 mW) (without light irradiation for dark) at 37° C. for 5 minutes. Further, the cell culture plate containing the reaction solution was incubated in a 5% CO2 atmosphere at 37° C. for 48 hours. Finally, the Cell Count Reagent SF (10 μL: purchased from NACALAI TESQUE, INC.) containing WST-8 was added, and the culture was incubated in a 5% CO2 atmosphere at 37° C. for 3 hours, and thereafter the cell viability was determined from the absorbance at 450 nm (reference wavelength: 655 nm).

T1 sequence (P05067 672-713): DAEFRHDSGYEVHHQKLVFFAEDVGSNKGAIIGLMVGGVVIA

Row | SMILES | Maximum wavelength λmax (nm) ([1]; Table 1) | Degree of oxygenation (%) of Aβ42 (λ = 660 nm) [2] | Maximum wavelength λmax (nm) ([1]; Table 2) | Degree of oxygenation (%) of Aβ42 (λ = 780 nm) [2] | stability of catalyst (ranking) [5] | toxicity under light irradiation (ranking) [7] | other results
1 | CN(C)c1ccc(/C=C/C2=CC(=C/C=C3C=CC(=[N+](C)C)C=C3)/O[B-](F)(F)O2)cc1 [CRANAD-2, (T-4)-[(1E,6E)-1,7-bis[4-(dimethylamino)phenyl]-1,6-heptadiene-3,5-dionato-κO^3,κO^5]difluoroboron, reference compound] | 579 nm | trace | – | – | – | – | –
2 | C[n+]1c2ccc(Br)cc2nn1-c1cc2c3c(c1)CCCN3CCC2 [Compound 3, 9-(6-bromo-3-methyl-1,3-benzotriazol-3-ium-2-yl)-julolidine, reference compound] | 456 nm | trace | – | – | – | – | percentage of oxygenation ratios [oxygenation ratio under mouse skin/oxygenation ratio outside of mouse skin]×100 [3]: 12%
3 | O=C(O)CCCCCN1CCCc2cc(/C=C/C3=[O+][B-](F)(C(F)(F)F)OC(/C=C/c4cc5c6c(c4)CCCN6CCC5)=C3Br)ccc21 (stereo not drawn) [Compound I] | – | – | 645 nm | 52% | stability was higher | – | CC50 ([4]; PC 12 cells in dark, 37° C., 5 minutes, n=3, mean±SEM, Table 2, read-out: LC50 (dark)): > 10 µM; CC50 ([4]; PC 12 cells, light irradiation 780 nm, 37° C., 5 minutes, n=3, mean±SEM, Table 2, read-out: LC50 (light)): 1.67 µM; oxygenation of Aβ1-42 under light irradiation ([6]; LED irradiation at both 660 nm and 730 nm): oxygenation of the Aβ proceeded
4 | CN(C)c1ccc(/C=C/C2=C(Br)C(/C=C/c3ccc4c(c3)CCCN4CCCCCC(=O)O)=[O+][B-](F)(C(F)(F)C(F)(F)F)O2)cc1 (stereo not drawn) [Compound J] | 622 nm | 79% | 620 nm | 41% | higher in the order of BFCF3 (compound K)<BFCF2CF3 (compound J) | higher in the order of the compound J, the compound K, and the compound L | –
5 | CN(C)c1ccc(/C=C/C2=C(Br)C(/C=C/c3ccc4c(c3)CCCN4CCCCCC(=O)O)=[O+][B-](F)(F)O2)cc1 [Compound L] | 623 nm | 73% | – | – | stability was the lowest | higher in the order of the compound J, the compound K, and the compound L | CC50 [4]: 0.024 µM
6 | O=C(O)CCCCCN1CCCc2cc(/C=C/C3=[O+][B-](F)(C(F)(F)C(F)(F)C(F)(F)F)OC(/C=C/c4cc5c6c(c4)CCCN6CCC5)=C3Br)ccc21 (stereo not drawn) [Compound S] | – | – | 633 nm | 37% | – | – | CC50 [4]: > 10 µM
7 | CN(C)c1ccc(/C=C/C2=C(I)C(/C=C/c3ccc4c(c3)CCCN4CCCCCC(=O)O)=[O+][B-](F)(C(F)(F)F)O2)cc1 (stereo not drawn) [M] | – | – | – | – | – | iodine provides more reduced toxicity than in the case of bromine | oxygenation of Aβ1-42 under light irradiation ([6]; LED irradiation at 730 nm): oxygenation of the Aβ proceeded
